From patent publication US6737383B1, “Herbicidal oxadiazolidines” (priority 1999, dated 2004)

Assays:
Green foxtail = test: Test D green foxtail; assay type: in vivo; details: Postemergence, 0 to 100 scale
common poppy = test: Test E common poppy; assay type: in vivo, Papaver rhoeas; details: Preemergence
sourgrass = test: Test D sourgrass; assay type: in vivo, Trichachne insularis; details: Postemergence, 0 to 100 scale
maize hybrid P33G26 = test: Test G maize injury with safener-treated seed; details: 28 days after application
Summary of the method: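 Maize hybrid P33G26 seed, treated with dichlormid, fenchlorazole-ethyl or naphthalic anhydride or left untreated, was sown in soil pots, then sprayed pre-emergence with several compound rates at 310 L/ha. Plants grew in a greenhouse (14 h day, about 27/24 °C day/night), with 4–5 replicates. Injury was scored visually against untreated controls 28 days after application.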

[1] = Rate 125 g/ha, 0 no injury, 100 complete control

CC(C)N(C(=O)n1oc(=O)n(C2CC2)c1=O)c1ccc(F)cc1F [Compound 299]
Plant response rating, Green foxtail (Green foxtail; Rate 250 g/ha): 100 | Plant response rating, Green foxtail (Green foxtail; Rate 500 g/ha): 100

C=CCn1c(=O)on(C(=O)N(c2ccc(F)cc2)C(C)C)c1=O [Compound 146]
Plant response rating, Common poppy (common poppy; Rate 125 g/ha, 0 to 100 scale (0 no effect, 100 complete control)): 100 | Common poppy plant response rating (0 to 100 scale) (common poppy; Rate 250 g/ha): 100 | Plant response rating, Common poppy (common poppy; Rate 500 g/ha, 0 to 100 scale where 0 is no effect and 100 is complete control): 100 | Sourgrass plant response rating (sourgrass; Rate 64 g/ha, 0 no injury, 100 complete control): 50 | Plant response rating, Sourgrass (sourgrass; [1]): 50 | Sourgrass plant response rating (sourgrass; [1]): 30 | Plant response rating, Sourgrass (sourgrass; Rate 250 g/ha): 80 | Plant response rating, Sourgrass (sourgrass; Rate 500 g/ha): 80 | Mean plant response rating, maize (maize hybrid P33G26; Safener Dichlormid (seed treatment), Rate 140 g ai/ha): 1 percent control | Mean plant response rating, maize (maize hybrid P33G26; Safener Dichlormid (seed treatment), Rate 280 g ai/ha): 1 percent control | Mean plant response rating, maize (maize hybrid P33G26; Safener Dichlormid (seed treatment), Rate 560 g ai/ha): 4 percent control | Mean plant response rating, maize (maize hybrid P33G26; Safener Dichlormid (seed treatment), Rate 1120 g ai/ha): 4 percent control | Mean plant response rating, maize (maize hybrid P33G26; Safener Fenchlorazole-ethyl (seed treatment), Rate 140 g ai/ha): 3 percent control | Mean plant response rating, maize (maize hybrid P33G26; Safener Fenchlorazole-ethyl (seed treatment), Rate 280 g ai/ha): 74 percent control | Mean plant response rating, maize (maize hybrid P33G26; Safener Fenchlorazole-ethyl (seed treatment), Rate 560 g ai/ha): 78 percent control | Mean plant response rating, maize (maize hybrid P33G26; Safener Fenchlorazole-ethyl (seed treatment), Rate 1120 g ai/ha): 85 percent control | Mean plant response rating, maize (maize hybrid P33G26; Safener None, Rate 140 g ai/ha): 49 percent control | Mean plant response rating, maize (maize hybrid P33G26; Safener None, Rate 280 g ai/ha): 73 percent control | Mean plant response rating, maize (maize hybrid P33G26; Safener None, Rate 560 g ai/ha): 80 percent control | Mean plant response rating, maize (maize hybrid P33G26; Safener None, Rate 1120 g ai/ha): 85 percent control | Mean plant response rating, maize (maize hybrid P33G26; Safener naphthalic anhydride (seed treatment), Rate 140 g ai/ha): 0 percent control | Mean plant response rating, maize (maize hybrid P33G26; Safener naphthalic anhydride (seed treatment), Rate 1120 g ai/ha): 35 percent control
